Key:
[1] = target: T1, Macrophage migration inhibitory factor (Homo sapiens) (UniProt P14174); assay: Inhibition of human purified MIF tautomerase activity at 100 uM after 30 mins
T1 sequence (whole entry): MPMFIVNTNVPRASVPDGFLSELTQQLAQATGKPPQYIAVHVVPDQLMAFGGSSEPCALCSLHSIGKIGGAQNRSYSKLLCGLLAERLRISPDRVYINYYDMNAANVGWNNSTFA

[2] = test system: PBMC; assay: Antiinflammatory activity in human PBMC assessed as inhibition of MIF-induced TNFalpha production at 100 uM after 21 hrs by ELISA; type: functional
[3] = test system: PBMC; assay: Antiinflammatory activity in human PBMC assessed as inhibition of MIF-induced IL1-beta production at 100 uM after 21 hrs by ELISA; type: functional
[4] = test system: PBMC; assay: Antiinflammatory activity in human PBMC assessed as inhibition of MIF-induced IL-6 production at 100 uM after 21 hrs by ELISA; type: functional
[5] = target: T1, Macrophage migration inhibitory factor (Homo sapiens); assay: Inhibition of MIF in human PBMC assessed as MIF secretion at 100 uM after 5 hrs by ELISA
[6] = Cytotoxicity against human PBMC assessed as cell viability measured during cytokines production assay at 100 uM after 21 hrs by MTS assay; type: cell-based; conditions: PBMC (peripheral blood mononuclear cells)
[7] = Cytotoxicity against human PBMC assessed as cell viability measured during MIF secretion assay at 100 uM after 21 hrs by MTS assay; type: cell-based; conditions: PBMC (peripheral blood mononuclear cells)
[8] = target: T1, Macrophage migration inhibitory factor (Homo sapiens); assay: Inhibition of human purified MIF tautomerase activity at 10 uM after 30 mins
[9] = test system: PBMC; assay: Antiinflammatory activity in human PBMC assessed as inhibition of MIF-induced IL-6 production at 30 uM after 21 hrs by ELISA; type: functional
[10] = target: T1, Macrophage migration inhibitory factor (Homo sapiens); assay: Inhibition of MIF in human PBMC assessed as MIF secretion at 10 uM after 5 hrs by ELISA

| inhibition [1] [%] | inhibition [5] [%] | inhibition [8] [%] | inhibition [10] [%] | SMILES | inhibition at 100 µM [2] [%] | inhibition at 100 µM [3] [%] | inhibition at 100 µM [4] [%] | cytotoxicity at 21 h, 100 µM [6] [%] | cytotoxicity at 21 h, 100 µM [7] [%] | inhibition at 30 µM [9] [%] |
| --- | --- | --- | --- | --- | --- | --- | --- | --- | --- | --- |
| 30 | 86 | 13 | 40 | CC(C)(C)C(=O)OC1CC(c2ccoc2)=NO1 (stereo not given) | 0 | 6 | 1 | 8 | 0 | 3 |
| 97 | 1 | 55 | 0 | COc1ccc(C2CC(c3cn(-c4cccc(C(F)(F)F)c4)c4ccccc34)=NO2)cc1 (stereo not given) | 23 | 37 | 13 | 3 | 0 | 5 |
| 100 | 0 | 55 | 0 | Fc1ccc(C2CC(c3cn(-c4cccc(C(F)(F)F)c4)c4ccccc34)=NO2)cc1 (stereo not given) | 0 | 0 | 4 | 1 | 0 | 0 |
| 100 | 8 | 18 | 0 | FC(F)(F)c1cccc(-n2cc(C3=NOC(Cn4ccc5ccccc54)C3)c3ccccc32)c1 (stereo not given) | 30 | 44 | 17 | 16 | 0 | 15 |
